In patent publication US20050019746A1, “Apoptosis-related kinase/GPCRs” (EiRx Therapeutics Limited, priority 2003, published 2005):
Entries after “also recorded” stand apart in the source; their conditions may differ.

What was measured:
Type in all cases: cell-based, human
cancer cell lines = experiment: Anchorage Independence/Soft Agar Assay, summary over the cell lines; details: 14-day anchorage independent assay, over the cell lines examined
Procedure: (§1) The Anchorage Independence/Soft Agar Assay allows assessment of the influence of modulation of gene expression on clonal tumouroid formation by observing and quantifying tumouroid morphology and colony number over an extended period of logarithmic growth thereby ascertaining any cell death is induced.
(§2) Cells are seeded into a 6-well plate and allowed to adhere overnight at 37° C. in a humidified atmosphere containing 5% CO2 in air. Cells are next transfected with siRNA Oligomers, at a concentration of 2 μg, against the genes of interest. Transfections continued for 4 hrs after which the transfection solution is removed and cells are refed with fresh medium and allowed incubate overnight. Transfected cells are next harvested for seeding into soft agar assay as described below. Cells are seeded at 5×10^4 cells per well of a 6 well plate and incubated over a 12/14-Day period whilst proliferating in a 0.05% Agar/Medium cell suspension at 37° C. in a humidified atmosphere containing 5% CO2 in air. Colonies formed are subsequently stained with Crystal Violet, their morphology is assessed and colonies formed are enumerated at a 4× magnification.
(§3) The cytotoxic effect of each gene is determined by a reduction in colony number compared to our MS control, but any influence on the morphology of the colony is also noted.
As an internal reference, the known survival gene ‘Survivin’ was also targeted by siRNA.

MCF7 cells = experiment: Anchorage Independence/Soft Agar Assay, MCF7; parameters: PERCENTAGE SURVIVAL RELATIVE TO MS, MCF7, n = 2: tested at 2 µg; details: soft agar; for PERCENTAGE SURVIVAL RELATIVE TO MS, MCF7, n = 1: experiment n = 1; for PERCENTAGE SURVIVAL RELATIVE TO MS, MCF7, n = 2: experiment n = 2
Summary of the method: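 Cells were transfected for 4 h with 2 μg siRNA against target genes, then seeded at 5×10^4 cells/well in 0.05% agar/medium and grown 12/14 days at 37 °C, 5% CO2. Crystal violet-stained colonies were counted at 4× and morphology assessed; survival expressed relative to missense siRNA control.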

[1] = system: target gene mRNA in DU145 cells; experiment: Knockdown by RNAi, QPCR, DU145 cells; details: DU145, 24 hrs post transfection, relative to missense control
Procedure: These siRNA oligos are initially tested for efficacy in a cell line in which the gene is expressed for example in the Hela, U251, TF1 or DU145 cell lines. Cells are plated at a density of between 7.5-10×10^4 in each well of a 6 well plate and incubated at 37° C. overnight in DMEM culture medium (1× Dulbeccos modified Eagles medium (Sigma D2554), 0.004% folic acid, 4 mM L-glutamine, 0.37% sodium bicarbonate, 0.1 mM sodium pyruvate) containing 10% fetal calf serum (FCS). 2 μg of duplex siRNA is transfected into cells using DMRIE-C reagent (Invitrogen 10459-014) according to methods described in U.S. Patent Application No. 60/498,488. In brief, to prepare 1 ml of a transfection solution 2 μg of siRNA duplex in added to 1 ml of Optimem (Gibco), to which 8 μl of DMRIE C reagent is added. Transfection mix is added directly to the cells and incubated for 4 hrs at 37° C. Post this 4 hr incubation, transfection solution is removed and cells are refed with fresh culture medium and incubated for a further 24 hrs. An additional medium change is required at this point to minimise toxicity of the transfection procedure. Cells are harvested at 24 or 48 hrs post transfection for analysis of mRNA expression. […]
After DMRIE transfections with siRNA Oligos against the apoptosis associated genes identified herein, or controls, cells are harvested at 24 or 48 hours post transfection as stated previously. […] RNA is quantified by spectrophotometric analysis and 1 μg is reverse transcribed into cDNA using SuperScriptII RNAseH-Reverse Transcriptase (Invitrogen 18064-014). […] QPCR primers are designed to amplify a PCR product of approximately 100 to 300 nucleotides in length from the CDS, following the guidelines outlined in the Quantitect SYBR Green PCR handbook from Qiagen.
Two template standards are used for quantitative PCR assessment of mRNA levels: • 1. A control RPS13 i.e. Ribosomal Protein Sub unit 13 (NM_001017) amplified PCR product diluted to [1000,100,10,1 and 0.1 fg] respectively, used to quantify the level of transcript; • 2. […]

U251 cells = experiment: Anchorage Independence/Soft Agar Assay, U251; details: soft agar, experiment n = 1
Procedure: as §1
as §2, with “Cells are seeded at 5×10^4 cells per well of a 6 well plate and incubated over a 12/14-Day period whilst proliferating in a 0.05% Agar/Medium cell suspension at 37° C. in a humidified atmosphere containing 5% CO2 in air.” left out
as §3
Examples of genes with a cytotoxic effect on knockdown as detected by the soft agar assay are outlined in Table 14. […]

| Substance | cell death / apoptosis in the soft agar assay (cancer cell lines) | PERCENTAGE SURVIVAL RELATIVE TO MS, MCF7, n = 1 (MCF7 cells) | PERCENTAGE SURVIVAL RELATIVE TO MS, MCF7, n = 2 (MCF7 cells) | % Knockdown by RNAi, DU145 [1] | PERCENTAGE SURVIVAL RELATIVE TO MS, U251, n = 1 (U251 cells) |
| --- | --- | --- | --- | --- | --- |
| siRNA Survivin: positive control siRNA, sense GAACUGGCCCUUCUUGGAGtt, antisense CUCCAAGAAGGGCCAGUUCtt (sense GAACUGGCCCUUCUUGGAGTT; antisense CUCCAAGAAGGGCCAGUUCTT; chemistry not given here) [reference compound] | induced cell death in all cell lines | 80.3% | 50.3% |  |  |
| siRNA GRAF: siRNA duplex, sense GCGGAAGUUUGCAGAUUCCtt, antisense GGAAUCUGCAAACUUCCGCtt; same in Tables 9 and 11 (sense GCGGAAGUUUGCAGAUUCCTT; antisense GGAAUCUGCAAACUUCCGCTT; chemistry not given here) |  |  |  | 84.4% |  |
| siRNA PSKH1: sense GAACCUGCACCGCUCCAUAtt, antisense UAUGGAGCGGUGCAGGUUCtt (sense GAACCUGCACCGCUCCAUATT; antisense UAUGGAGCGGUGCAGGUUCTT; chemistry not given here) | modulates apoptosis; also recorded: significant cell death in all cell lines | 82.6% | 11.9% |  |  |
| siRNA MKNK: sense UACAUGGCCCCUGAGGUAGtt, antisense CUACCUCAGGGGCCAUGUAtt (sense UACAUGGCCCCUGAGGUAGTT; antisense CUACCUCAGGGGCCAUGUATT; chemistry not given here) | induced cell death consistently in 2 of the cell lines examined | 25.9% | 4% |  |  |
| siRNA FLT4: sense GUACGGCAACCUCUCCAACtt, antisense GUUGGAGAGGUUGCCGUACtt (sense GUACGGCAACCUCUCCAACTT; antisense GUUGGAGAGGUUGCCGUACTT; chemistry not given here) |  |  |  | 85% |  |
| siRNA MAK: sense GAAGCCAAGCAUGGGUGUUtt, antisense AACACCCAUGCUUGGCUUCtt (sense GAAGCCAAGCAUGGGUGUUTT; antisense AACACCCAUGCUUGGCUUCTT; chemistry not given here) |  |  |  | 19% |  |
| siRNA MPSK1: sense GGGUUAUGCCCACAGAGACtt, antisense GUCUCUGUGGGCAUAACCCtt (sense GGGUUAUGCCCACAGAGACTT; antisense GUCUCUGUGGGCAUAACCCTT; chemistry not given here) | significant cell death in all cell lines | 35.8% | 30.3% |  | 18% |
